For test [1], the system named is Sp1 promoter. Put plainly: Sp1 promoter luciferase reporter in PANC-1 cells. The class given is cell-based, human. The note with it: 100 μg/ml BVZ or 0.1 μM MIT. On the procedure: FIG. 15. Effects of treatment with BVZ and MIT on Sp1 recruitment into the Sp1 promoter in human pancreatic cancer cells in vitro and in vivo. A, schematic structures of the minimal Sp1 promoters. The nucleotide positions and sequences of Sp1-binding sites and polymerase chain reaction forward and reverse primers flanking those sites for ChIP assay are shown. B, Sp1 and VEGF promoter reporter constructs were transfected into PANC-1 cells in triplicate and incubated for 12 hours. The cells were then incubated for another 24 hours in a medium alone or a medium containing 100 μg/ml BVZ or 0.1 μM MIT. Total protein lysates were harvested from the cell cultures for measurement of Sp1 and VEGF promoter activity using a luciferase assay kit. The relative Sp1 and VEGF promoter activities were assessed, and the activity in treated groups was expressed as the fold change of that in their respective control groups. C and D, chromatin was extracted from (C) PANC-1 cells that were incubated in vitro for 2 days in a medium alone or a medium containing 100 μg/ml BVZ or 0.1 μM MIT and (D) tumors formed by PANC-1 cells in nude mice that received treatment as described in FIG. 2A. […]
Sp1 promoter constructs and analysis of Sp1 promoter activity. […] The reporter luciferase activity was measured 48 hours later using a luciferase assay kit (Promega, Madison, Wis.). […]
Background: A reporter such as luciferase makes a cellular process visible.

The subject of test [2] is Sp1, VEGF, EGFR, PDGFA, CD31 (MVD). As to the kind of experiment: Gene expression and MVD in H727 tumor tissues. The test is classed as in vivo, nude mice. On the procedure:
FIG. 20. Upregulation of Sp1 and VEGF expression by treatment with BVZ and its reversal by treatment with MIT. The tumor tissues described in FIG. 4 were collected and processed as described in Materials and Methods. A. Frozen sections made from the tumors were used CD31 staining and MVD assessment. Representative photos of the stains are shown. B. Total protein lysates were harvested from tumor tissues, and the expression levels of Sp1, VEGF, EGFR and PDGFA protein were determined using Western blot analyses. Equal protein-sample loading was monitored by probing the same membrane filter with an anti-GAPDH antibody. C. The expression levels of Sp1, VEGF, EGFR and PDGFA were further determined by calculating the ratios between those genes and GAPDH.
Western blot analysis. Whole-cell lysates were prepared from human LGNET cell lines and tissues (21). Standard Western blotting was performed using polyclonal rabbit antibodies against human and mouse Sp1, VEGF, EGFR and PDGFA (Santa Cruz Biotechnology, Santa Cruz, Calif.) and the anti-rabbit IgG antibody, a horseradish peroxidase-linked F(ab′)2 fragment obtained from a donkey (Amersham, Arlington Heights, Ill.). Equal protein-sample loading was monitored by probing the same membrane filter with an antibody against glyceraldehyde-3-phosphate dehydrogenase (GAPDH) (21). The probe proteins were detected using the Amersham enhanced chemiluminescence system according to the manufacturer's instructions.
Immunohistochemical analysis and quantification of tumor MVD. For CD31 staining, frozen tissue sections (5 μm thick) were fixed in acetone. Endogenous peroxidase in the specimens was blocked using 3% hydrogen peroxide in phosphate-buffered saline (PBS) for 12 minutes. […] For quantification of tumor MVD, vessels on each section were counted in five high-power fields (magnification, ×200 [×20 objective and ×10 ocular]) as described previously (40). […]

For test [3], the system named is BON-1 cells. Put plainly: Viable cell count in vitro, BON-1. As to conditions: 0 to 100 μg/ml BVZ, 5 days. The test is classed as cell-based, human. On the procedure: FIG. 18. Effects of treatment with BVZ and MIT on the growth of and gene expression in human carcinoid cells in vitro. A. H727 and BON-1 cells were incubated for 5 days in a medium alone or a medium containing 25 to 100 μg/ml BVZ. The viable cells were counted. B. H727 cells were incubated for 5 days in a medium alone or a medium containing 100 μg/ml BVZ. Total protein lysates were harvested from the cell cultures, and the level of Sp1 and VEGF protein expression was determined using Western blot analysis. Equal protein-sample loading was monitored by probing the same membrane filter with an anti-GAPDH. C. H727 and BON-1 cells were treated with MIT at concentrations ranging from 0.1 to 2.5 μM for 24 hours. Cytotoxicity was assessed using the MTT assay.
Effects of treatment with BVZ and MIT on the growth of and gene expression in human LGNET cells. To further determine whether treatment with BVZ directly impacts gene expression in LGNET cells, we incubated H727 and BON-1 cells in a medium alone or a medium containing 0 to 100 μg/ml BVZ for 5 days.

In the case of bevacizumab [BVZ], in test [1], the Sp1 promoter activity entry is reported as “did not suppress Sp1 promoter activity”. In addition, the “expression of PDGFA, VEGF, and EGFR in H727 tumor tissue” value in test [2] (combination study (FIGS. 20B and 20C), Western blot) was “upregulated the expression of other proangiogenic molecules”. Besides, in test [2] (combination study: PBS, BVZ, MIT, or B+M (FIG. 20)), the “Sp1 expression in H727 tumor tissue” value was “increased expression of Sp1”. Also, in test [2] (combination study: low-dose BVZ or MIT alone (FIG. 20)), the MVD entry was “did not significantly reduce MVD”. The “cell growth in vitro” value in test [3] was “did not affect the growth”.

The record behind these values is US20080274121A1, “Inhibition of Angiogenesis by Mithramycin” (priority 2007, published 2008).
